Reference: patent publication US20020115624A1, “Alpha gylcosylceramides for treating bacterial and fungal infections” (priority 2000, published 2002)

Tests used:
M. tuberculosis (Erdman) = test: Intravenous inoculation model of tuberculosis: survival of infected BALB/c mice treated with α-galactosylceramide; type: in vivo
[1] = test system: NK, B, CD8+, and CD4+ lymphocytes; conditions: cited from earlier work
NKT cells = conditions: specificity for the α-linkage; cited from earlier work

| Molecule | survival compared to the control group (M. tuberculosis (Erdman); BALB/c mice, 5×10^5 cfu IV, 2 ug IP on days 1, 5 and 9, nine mice per group) | mean survival time (MST) (M. tuberculosis (Erdman); BALB/c mice, 5×10^5 cfu IV, 2 ug IP on days 1, 5 and 9 after infection, vehicle MST 60 days, p<0.0001 by log-rank test) | bacteriological cure (M. tuberculosis (Erdman); preliminary experiments, all of the infected mice died despite treatment) | time to activation of NK, B, CD8+ and CD4+ lymphocytes (induction of CD69, CD80, CD86) ([1]; administration to mice in vivo) | time to detectable increase in serum IFN-γ ([1]; following in vivo treatment of mice) | activation of the immune system ([1]; mice that lack CD1d (CD1d −/−) or lack NKT cells (Jα281−/−)) | activation of NKT cells (NKT cells) |
| --- | --- | --- | --- | --- | --- | --- | --- |
| CCCCCCCCCCCCCCCCCCCCCCCCCC(=O)N[C@@H](CO[C@H]1O[C@H](CO)[C@H](O)[C@H](O)[C@H]1O)[C@H](O)[C@H](O)CCCCCCCCCCCCCC [α-galactosylceramide] | increased survival | 91 days | did not result in a bacteriological cure | 3 to 24 h | ≤ 18 h | does not occur |  |
| β-galactosylceramide |  |  |  |  |  |  | does not activate NKT cells |
